Entries after “also recorded” stand apart in the source; their conditions may differ. Where no end group is shown, it is not given here. allenamide 1a = not defined here
How the values were obtained:
[1] = target: T1, BSA (Bos taurus, UniProt P02769); assay: Labelling BSA with 6-8, SDS-PAGE analysis; type: biochemical, bovine; details: 10 nmol label, 1 nmol BSA, Tris-HCl pH 7.4, 37° C., 30 min
T1 construct: purchased
Method: 0.1 μmol/mL solution of BSA in H2O (10 μL, 1 nmol), 1.0 μmol/mL solution of 6, 7 and 8 in H2O (10 μL each, 10 nmol) and 80 μL of Tris-HCl buffer (pH 7.4) were mixed in 1 mL eppendorf tubes and incubated at 37° C. for 30 min.

[2] = tested on: peptides CGKSRF (3), KSCGRF (4) and YDSQCFHRW (5); assay: Modification of peptides 3, 4 and 5 with allenamide 1a; type: biochemical
Method: 100 μL of the peptide solution (250 μM in ammonium carbonate buffer of pH 8.0) was mixed with an equal amount of the solution of 1a (2.5 mM in ammonium carbonate buffer containing 5% THF). After pipette mixing, reaction mixture was allowed to stand at room temperature for 10-20 minutes. […] Site selectivity was established by LC-MS/MS.
(§1) The irreversibility of the conjugation product was tested with peptide 5 and GSH (2). No reversion to starting material 5 was observed when the conjugation product of 5 and 1a was incubated with excess (100 equivalent) glutathione for overnight at 37° C. […] The irreversibility of specific cysteine labelling may thus enable the possibility for the protein modification in intracellular environment.

[3] = Reaction of 1a with lysine, serine and methionine under similar conditions; details: similar conditions as for cysteine methyl ester
[4] = target: T2, bovine insulin (reduced chain A and chain B) (Bos taurus, UniProt P01317); assay: Modification of DTT-reduced bovine insulin using 1a; type: biochemical
T2 construct: purchased
T2 sequence (P01317 25-54 limits assumed): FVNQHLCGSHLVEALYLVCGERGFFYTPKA
T2 sequence (P01317 85-105 limits assumed): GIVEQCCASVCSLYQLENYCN
Method: After promising results in simple peptides, similar modification of cysteine residue in more complicated peptide sequences was also examined. A more complex pair of peptides generated from the DTT treatment of bovine insulin was tested (FIG. 10).
10 equivalents of solid DTT was added to 2 ml of a 10 mM solution of bovine insulin in 50 mM ammonium carbonate buffer of pH 8. The mixture after pipette mixing was allowed to stand at 70° C. under nitrogen atmosphere for 10 minutes. LCMS was done after due time and cooling to room temperature to confirm complete reduction of disulfide bonds. […] Similarly the m/Z values corresponding to chain A were obtained as 779, 1169 and 2338 corresponding to +3, +2 and +1 charge on chain A (molecular weight 2337.97). To 1 ml of the reduced insulin mixture was added 25 equivalents of 1a dissolved in 500 μL of THF and reaction mixture was allowed to stand at room temperature for 30 min. after pipette mixing. […] Thus, the expected molecular weight of modified chain B was 3743.67 (3397.67+346) and that of chain A was 3029.97 (2337.97+692) and the observed m/z values for modified chain B were at 750, 937, 1249 and 1873 corresponding to +5, +4, +3 and +2 charge and for chain A were at 1011 and 1515 corresponding to +3 and +2 charge on the chain. The site selectivity was further confirmed by MS/MS (FIGS. 11 and 12, respectively).

[5] = tested on: glutathione (GSH; 2); assay: Modification of glutathione (2) using allenamide 1a; type: biochemical
Method: 6.5 mg glutathione (0.021 mmol) was dissolved in 0.5 mL ammonium carbonate buffer (pH 8.0) in a 4 mL glass vial. To this solution was added 7.3 mg of allenamide 1a (0.042 mmol; 2 eq.) in 0.5 mL THF and resulting solution was mixed well using a pipette. […] This mixture was centrifuged at 8000 rpm for 5 min. Liquid was carefully decanted and the solid precipitated was washed two times with THF. The precipitate after final washing was dried in vacuum to give 9.9 mg (97% yield) of white solid (modified glutathione).

[6] = Reaction of allenamide 1a with cysteine methyl ester (free thiol and amino groups)
Method: […] Reaction mixture was stirred for 30 minutes after which TLC confirmed the complete consumption of 1a. THF was evaporated on rotary evaporator and product was extracted two times in dichloromethane (2.5 mL each). Solvent was evaporated and product was purified by column chromatography (5% MeOH in dichloromethane) to get 32.8 mg (76% yield) of white solid (modified cysteine).

[7] = target: T3, BSA (Bovine Serum Albumin) (Bos taurus, UniProt P02769); assay: Modification (alkylation) of BSA with compound 1a, trypsin digestion and LC-MS/MS; type: biochemical; details: DTT-reduced BSA, 30 min at 37° C., pH 8.0
T3 construct: purchased
T3 sequence (P02769 25-607): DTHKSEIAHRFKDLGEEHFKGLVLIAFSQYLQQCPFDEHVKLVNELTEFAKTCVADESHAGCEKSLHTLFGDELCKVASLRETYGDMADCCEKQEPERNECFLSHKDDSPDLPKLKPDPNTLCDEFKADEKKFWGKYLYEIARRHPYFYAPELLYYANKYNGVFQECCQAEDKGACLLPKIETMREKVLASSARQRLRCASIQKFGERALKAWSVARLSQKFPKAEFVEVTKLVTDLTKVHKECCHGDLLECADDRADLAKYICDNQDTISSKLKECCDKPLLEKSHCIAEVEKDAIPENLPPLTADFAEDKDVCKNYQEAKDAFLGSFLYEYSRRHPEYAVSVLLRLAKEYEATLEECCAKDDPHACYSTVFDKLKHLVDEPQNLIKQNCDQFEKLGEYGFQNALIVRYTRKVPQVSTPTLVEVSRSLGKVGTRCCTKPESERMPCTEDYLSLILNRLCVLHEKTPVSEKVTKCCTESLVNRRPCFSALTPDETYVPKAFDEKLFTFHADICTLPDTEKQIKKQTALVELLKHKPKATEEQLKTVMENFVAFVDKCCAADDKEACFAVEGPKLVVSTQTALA
Method: 6.6 mg of BSA (0.1 μmol) was dissolved in 1 ml of ammonium carbonate buffer (pH 8.0). To this was added 2.3 mg solid DTT (15 μmol) and after pipette mixing resulting mixture was incubated over night at 37° C. 3.7 mg of 1a (21 μmol) dissolved in 1 ml of ammonium carbonate buffer (5% THF) was then added to it and incubated again for 30 min at 37° C. After due time, protein was purified through nano-separation filtration. The purified protein was subjected to trypsin digestion and LC-MS/MS using standard protocols (FIG. 13).

[8] = tested on: peptide 5 (YDSQCFHRW); assay: Modification of cysteine in peptide 5 using allenamides 1b-d; type: biochemical; details: peptide sequence YDSQCFHRW; as determined by LCMS
Method: After pipette mixing, reaction mixture was allowed to stand at room temperature for 10-20 minutes. […] Site selectivity was established by LC-MS/MS.

[9] = target: TEM1 β-Lactamase (Bla) (Escherichia coli, UniProt P62593); assay: Labelling TEM1 β-lactamase with 7, SDS-PAGE analysis; type: biochemical, bacterial; details: Tris-HCl pH 7.4, 37° C., 30 min
Sequence of TEM1 β-Lactamase (Bla) (P62593 24-286 limits assumed): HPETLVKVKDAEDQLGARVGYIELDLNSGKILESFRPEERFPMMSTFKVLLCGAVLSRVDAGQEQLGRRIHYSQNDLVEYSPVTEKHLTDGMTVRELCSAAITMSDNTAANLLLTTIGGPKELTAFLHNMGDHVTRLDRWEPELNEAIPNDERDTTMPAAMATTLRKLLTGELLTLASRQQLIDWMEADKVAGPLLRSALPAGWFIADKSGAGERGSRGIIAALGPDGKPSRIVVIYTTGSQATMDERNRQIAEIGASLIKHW
Method: For TEM1 β-Lactamase, 0.1 μmol/mL solution of β-Lactamase in H2O (10 μL, 1 nmol), 1.0 μmol/mL solution of 7 in H2O (10 μL, 10 nmol) and 80 μL of Tris-HCl buffer (pH 7.4) were mixed in a 1 mL eppendorf tube and incubated at 37° C. for 30 min. After due time, reaction mixture was subjected to SDS-PAGE analysis which confirmed no labelling. In second part of this experiment, 0.1 μmol/mL solution of β-Lactamase (1 mL) was heated with 1.0 μmol/mL solution of DTT (1 mL) at 80° C. for 10 min. After cooling down to room temperature, a 10 μL aliquot of this mixture was mixed with 10 μL of 7 (2.0 μmol/mL in H2O) and 80 μL of Tris-HCl buffer (pH 7.4) and incubated at 37° C. for 30 min.

[10] = Irreversibility of the conjugation products against excess thiol (LCMS); type: physicochemical; details: excess (100 equivalent) glutathione, overnight at 37° C.
Method: as §1

T1 sequence (P02769 25-607): as the sequence (P02769 25-607) above

In the case of C=C=CC(=O)NCCNC(=S)Nc1ccc2c(c1)C(=O)OC21c2ccc(O)cc2Oc2cc(O)ccc21 (single isomer, unassigned) [Compound 6], the “Labelling of BSA (SDS-PAGE)” value [1] is reported as “labelling to have taken place successfully”.

With C=C=CC(=O)NCc1ccccc1 [Allenamide 1a, N-benzylbuta-2,3-dienamide] the “Site of modification in peptides 3, 4 and 5 (LCMS and LC-MS/MS)” value [2] was “selectively at cysteine”, the “Conversion of peptides 3, 4 and 5 (LCMS)” value ([2]; 250 μM peptide, 2.5 mM 1a, pH 8.0, room temperature, 10-20 minutes) was “quantitative conversion” and the “Reaction of other amino acid residues (histidine, lysine, tyrosine and other reactive side chains) with 1a” value ([2]; even after standing overnight) was “did not give any reaction”. For the same compound, the “Product formation with lysine, serine and methionine” value [3] was “no product was obtained”, the “Modification of reduced insulin chains (LCMS)” value ([4]; 25 equivalents of 1a, room temperature, 30 min) was “expected modification” and the “Molecules of allenamide included in chain A” value ([4]; chain A, from molecular weight increment 692) was “four molecules”. The “Molecules of allenamide included in chain B” value ([4]; chain B, from molecular weight increment 346) was “two molecules”, the “Conversion of glutathione (LCMS)” value ([5]; 2 eq. 1a, ammonium carbonate buffer pH 8.0/THF, after 15 min) was “complete conversion” and the “Site of modification in glutathione (NMR, LC-MS/MS)” value ([5]; cysteine thiol versus amino groups) was “modification at the cysteine residue”. For the same compound, the “Reaction at the free amino group of cysteine methyl ester” value ([6]; even when 1a was used in excess) was “No reaction”, the “Group of cysteine methyl ester involved in the reaction” value ([6]; gives product 1aa) was “Only the free thiol group” and the “Modification of cysteine residues of BSA (LC-MS/MS of tryptic peptides)” value [7] was “All cysteine residues in the detected peptides were found to be modified”.

With C=C=CC(=O)NCC(=O)OCC [Allenamide 1b, ethyl 2-(buta-2,3-dienamido)acetate] the Conversion [8] was “Quantitative”.

With C=C=CC(=O)NC1CCCCC1 [Allenamide 1c, N-cyclohexylbuta-2,3-dienamide] the Conversion [8] was “Quantitative”.

With C=C=CC(=O)Nc1cccc2ccccc12 [Allenamide 1d, N-(naphthalene-1-yl)buta-2,3-dienamide] the Conversion [8] was “Quantitative”.

For C=C=CC(=O)NCCNC(=O)CCCCC[N+]1=C(/C=C/C=C2/N(C)c3ccccc3C2(C)C)C(C)(C)c2ccccc21.[Cl-] [Compound 7], the “Labelling of BSA (SDS-PAGE)” value [1] was “labelling to have taken place successfully”, the “Labelling of β-Lactamase after DTT treatment (SDS-PAGE)” value ([9]; DTT at 80° C. for 10 min before) was “successful labelling; also recorded: successful labeling was observed” and the “Labelling of β-Lactamase without DTT treatment (SDS-PAGE)” value ([9]; no free cysteine) was “no labelling; also recorded: no labeling was observed”.

In the case of “conjugation product of 5 and 1a: peptide YDSQCFHRW (5) modified at cysteine with allenamide 1a (YDSQC(allenamide 1a)FHRW-OH; not fully specified; reading uncertain)”, the “Reversion of conjugation product to starting material 5” value [10] is reported as “No reversion”.
